In PubChem BioAssay (NCI):
Values after ≈ are worked out from the molar mass of the structure shown. Values joined by “and” are separate entries in the source; they are usually repeats but may differ in a detail not shown here. Identical values can stand only once.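 Cultured in 96-well plates, cells were exposed to test compound for 48 hours across five concentrations. Abbreviation: GI50, concentration required for 50% inhibition of growth. At the TGI there is no net growth.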

Tests used:
Experiment in all cases: NCI tumour cell line growth inhibition, 48 h
786-0 renal = tested on: 786-0 renal
A549 NSCLC = tested on: A549 NSCLC
CAKI-1 renal = tested on: CAKI-1 renal
CCRF-CEM leukemia = tested on: CCRF-CEM leukemia
DLD-1 colon = tested on: DLD-1 colon
DMS 114 small cell lung = tested on: DMS 114 small cell lung
DMS 273 small cell lung = tested on: DMS 273 small cell lung
HCC-2998 colon = tested on: HCC-2998 colon
HCT-116 colon = tested on: HCT-116 colon
HCT-15 colon = tested on: HCT-15 colon
HL-60(TB) leukemia = tested on: HL-60(TB) leukemia
HOP-18 NSCLC = tested on: HOP-18 NSCLC
HOP-92 NSCLC = tested on: HOP-92 NSCLC
HT29 colon = tested on: HT29 colon
IGROV1 ovarian = tested on: IGROV1 ovarian
K-562 leukemia = tested on: K-562 leukemia
KM12 colon = tested on: KM12 colon
KM20L2 colon = tested on: KM20L2 colon
LOX IMVI melanoma = tested on: LOX IMVI melanoma
M14 melanoma = tested on: M14 melanoma
M19-MEL melanoma = tested on: M19-MEL melanoma
MALME-3M melanoma = tested on: MALME-3M melanoma
MCF7 breast = tested on: MCF7 breast
MOLT-4 leukemia = tested on: MOLT-4 leukemia
NCI-H226 lung = tested on: NCI-H226 lung
NCI-H23 lung = tested on: NCI-H23 lung
NCI-H460 lung = tested on: NCI-H460 lung
NCI-H522 lung = tested on: NCI-H522 lung
NCI/ADR-RES ovarian = tested on: NCI/ADR-RES ovarian
OVCAR-3 ovarian = tested on: OVCAR-3 ovarian
OVCAR-4 ovarian = tested on: OVCAR-4 ovarian
OVCAR-5 ovarian = tested on: OVCAR-5 ovarian
OVCAR-8 ovarian = tested on: OVCAR-8 ovarian
P388 leukemia = tested on: P388 leukemia
P388/ADR leukemia = tested on: P388/ADR leukemia
RPMI-8226 leukemia = tested on: RPMI-8226 leukemia
RXF 393 renal = tested on: RXF 393 renal
RXF-631 renal = tested on: RXF-631 renal
SF-268 CNS = tested on: SF-268 CNS
SF-295 CNS = tested on: SF-295 CNS
SF-539 CNS = tested on: SF-539 CNS
SK-MEL-2 melanoma = tested on: SK-MEL-2 melanoma
SK-MEL-5 melanoma = tested on: SK-MEL-5 melanoma
SK-OV-3 ovarian = tested on: SK-OV-3 ovarian
SN12C renal = tested on: SN12C renal
SN12K1 renal = tested on: SN12K1 renal
SNB-19 CNS = tested on: SNB-19 CNS
SNB-78 CNS = tested on: SNB-78 CNS
SR leukemia = tested on: SR leukemia
SW-620 colon = tested on: SW-620 colon
TK-10 renal = tested on: TK-10 renal
U251 CNS = tested on: U251 CNS
UACC-62 melanoma = tested on: UACC-62 melanoma
UO-31 renal = tested on: UO-31 renal

With `Cc1c[nH]c2c1C13CC1CN(C(=O)c1cc4cc(NC(=O)c5cc6ccccc6o5)ccc4[nH]1)C3=CC2=O` (stereo unspecified) as the compound, how does the TGI (786-0 renal) read?
Its TGI is under 1 nM.

And the GI50 (A549 NSCLC)?
The GI50 was over 1.17 ng/mL.

And the GI50 (CAKI-1 renal)?
Its GI50 is over 1.17 ng/mL.

What about the TGI (CAKI-1 renal) of the same compound?
The TGI was under 1 nM.

And the GI50 (CCRF-CEM leukemia)?
Its GI50 is over 1.17 ng/mL.

And the TGI (CCRF-CEM leukemia)?
Its TGI is 68.2 nM.

What about the GI50 (DLD-1 colon) of the same compound?
Its GI50 is over 1.17 ng/mL.

And the TGI (DLD-1 colon)?
The TGI was 34.6 nM and 1.69 µg/mL.

And the GI50 (DMS 114 small cell lung)?
Its GI50 is over 1.17 ng/mL.

And the TGI (DMS 114 small cell lung)?
Its TGI is under 1 nM.

What about the GI50 (DMS 273 small cell lung) of the same compound?
Its GI50 is over 1.17 ng/mL.

And the GI50 (HCC-2998 colon)?
Its GI50 is over 1.17 ng/mL.

And the TGI (HCC-2998 colon)?
The TGI was under 1 nM.

What about the GI50 (HCT-116 colon) of the same compound?
The GI50 was over 1.17 ng/mL.

What about the TGI (HCT-116 colon) of the same compound?
The TGI was 11.2 nM and 0.117 µg/mL.

And the GI50 (HCT-15 colon)?
The GI50 was over 1.17 ng/mL.

And the TGI (HCT-15 colon)?
The TGI was under 1 nM.

And the GI50 (HL-60(TB) leukemia)?
The GI50 was over 1.17 ng/mL.

What about the TGI (HOP-18 NSCLC) of the same compound?
Its TGI is under 1 nM.

What about the GI50 (HOP-92 NSCLC) of the same compound?
The GI50 was over 1.17 ng/mL.

And the GI50 (HT29 colon)?
Its GI50 is over 1.17 ng/mL.

What about the TGI (HT29 colon) of the same compound?
The TGI was 143 nM.

What about the GI50 (IGROV1 ovarian) of the same compound?
Its GI50 is over 1.17 ng/mL.

And the TGI (IGROV1 ovarian)?
The TGI was 13.5 ng/mL (≈ 26.8 nM).

And the GI50 (K-562 leukemia)?
Its GI50 is over 1.17 ng/mL.

What about the TGI (KM12 colon) of the same compound?
The TGI was under 1 nM.

What about the TGI (KM20L2 colon) of the same compound?
Its TGI is under 1 nM.

And the GI50 (LOX IMVI melanoma)?
The GI50 was over 1.17 ng/mL.

And the TGI (LOX IMVI melanoma)?
Its TGI is under 1 nM.

And the TGI (M14 melanoma)?
Its TGI is under 1 nM.

And the TGI (M19-MEL melanoma)?
The TGI was under 1 nM.

And the TGI (MALME-3M melanoma)?
The TGI was under 1 nM.

And the GI50 (MCF7 breast)?
Its GI50 is over 1.17 ng/mL.

What about the TGI (MCF7 breast) of the same compound?
The TGI was 11700 ng/mL (≈ 23300 nM).

And the GI50 (MOLT-4 leukemia)?
The GI50 was over 1.17 ng/mL.

What about the TGI (MOLT-4 leukemia) of the same compound?
The TGI was 3.1 nM.

What about the TGI (NCI-H226 lung) of the same compound?
The TGI was under 1 nM.

And the GI50 (NCI-H23 lung)?
Its GI50 is over 1.17 ng/mL.

And the TGI (NCI-H23 lung)?
The TGI was under 1 nM.

What about the GI50 (NCI-H460 lung) of the same compound?
The GI50 was over 1.17 ng/mL.

What about the TGI (NCI-H460 lung) of the same compound?
The TGI was under 1 nM.

And the GI50 (NCI-H522 lung)?
The GI50 was over 1.17 ng/mL.

What about the TGI (NCI-H522 lung) of the same compound?
The TGI was under 1 nM.

What about the GI50 (NCI/ADR-RES ovarian) of the same compound?
Its GI50 is over 1.17 ng/mL.

What about the GI50 (OVCAR-3 ovarian) of the same compound?
Its GI50 is over 1.17 ng/mL.

What about the GI50 (OVCAR-4 ovarian) of the same compound?
The GI50 was over 1.17 ng/mL.

And the TGI (OVCAR-4 ovarian)?
The TGI was under 1 nM.

And the GI50 (OVCAR-5 ovarian)?
Its GI50 is over 1.17 ng/mL.

And the TGI (OVCAR-5 ovarian)?
The TGI was under 1 nM.

And the GI50 (OVCAR-8 ovarian)?
The GI50 was over 1.17 ng/mL.

And the TGI (OVCAR-8 ovarian)?
The TGI was under 1 nM.

And the GI50 (P388 leukemia)?
Its GI50 is over 1.17 ng/mL.

And the GI50 (P388/ADR leukemia)?
Its GI50 is over 1.17 ng/mL.

And the GI50 (RPMI-8226 leukemia)?
The GI50 was over 1.17 ng/mL.

And the TGI (RXF 393 renal)?
Its TGI is under 1 nM.

What about the TGI (RXF-631 renal) of the same compound?
The TGI was 13.9 nM.

What about the GI50 (SF-268 CNS) of the same compound?
Its GI50 is over 1.17 ng/mL.

What about the TGI (SF-268 CNS) of the same compound?
The TGI was under 1 nM.

What about the GI50 (SF-295 CNS) of the same compound?
The GI50 was over 1.17 ng/mL.

What about the TGI (SF-295 CNS) of the same compound?
Its TGI is under 1 nM.

And the TGI (SF-539 CNS)?
Its TGI is under 1 nM.

What about the GI50 (SK-MEL-2 melanoma) of the same compound?
Its GI50 is over 1.17 ng/mL.

What about the TGI (SK-MEL-2 melanoma) of the same compound?
The TGI was under 1 nM.

And the GI50 (SK-MEL-5 melanoma)?
The GI50 was over 1.17 ng/mL.

And the TGI (SK-MEL-5 melanoma)?
Its TGI is under 1 nM.

And the GI50 (SK-OV-3 ovarian)?
Its GI50 is over 1.17 ng/mL.

What about the TGI (SK-OV-3 ovarian) of the same compound?
Its TGI is 218 ng/mL (≈ 433 nM).

And the GI50 (SN12C renal)?
The GI50 was over 1.17 ng/mL.

What about the TGI (SN12C renal) of the same compound?
Its TGI is under 1 nM.

And the GI50 (SN12K1 renal)?
Its GI50 is over 1.17 ng/mL.

What about the TGI (SNB-19 CNS) of the same compound?
The TGI was 4.81 nM.

And the GI50 (SNB-78 CNS)?
Its GI50 is over 1.17 ng/mL.

What about the TGI (SNB-78 CNS) of the same compound?
The TGI was 32.1 nM and 0.0318 µg/mL.

What about the TGI (SR leukemia) of the same compound?
The TGI was under 1 nM.

And the GI50 (SW-620 colon)?
The GI50 was over 1.17 ng/mL.

What about the TGI (SW-620 colon) of the same compound?
The TGI was 1.07 nM and 0.00324 µg/mL.

What about the TGI (TK-10 renal) of the same compound?
The TGI was under 1 nM.

And the TGI (U251 CNS)?
Its TGI is under 1 nM.

What about the GI50 (UACC-62 melanoma) of the same compound?
The GI50 was over 1.17 ng/mL.

And the TGI (UACC-62 melanoma)?
Its TGI is under 1 nM.

What about the GI50 (UO-31 renal) of the same compound?
Its GI50 is over 1.17 ng/mL.
